Columns and labels:
ddY strain mice = experiment: Acute toxicity in mice; format: in vivo; conditions: five days after administration
Excerpt: Compound (1), (10) and (23) were orally or intraperitoneally administered to ddY strain mice.

Rabbit aorta = experiment: Ca2+-agonistic and antagonistic activity in rabbit aorta; conditions: compound 10^-6 M
Protocol: Rabbit aorta were isolated and cut into ring segments of about 2 mm. These preparations were suspended in 40 ml chambers filled with Krebs-Henseleit solution bubbled with a gas mixture of 95% O2 +5% CO2 (pH 7.4) and kept at 37° C. The contractile response to [K^+ ]o (9-48 mM) was measured in the absence or presence of test compounds (1).
That is, at lower [K^+ ]o these compounds augmented contractile force, however, at higher [K^+ ]o they produced only relaxation of aorta. [K^+ ]o, at which conversion of the effects of compounds (10^-6 M) occurred, was as follows.

Papillary muscle = experiment: Ca2+-agonistic and antagonistic action in rabbit myocardium (papillary muscle); conditions: compound 10^-4 M
Protocol: Papillary muscle was isolated from rabbit heart and suspended in 40 ml chamber filled with Krebs-Henseleit solution ([Ca^2+ ]o was elevated to 5 mM) bubbled with a gas mixture of 95% O2 +5% CO2 and kept at 37° C. The preparation was electrically driven at a rate of 0.5 Hz and developed tension was observed. [K^+ ]o was varied from 5.9 mM to 27 mM in the absence and presence of test compounds.
[K^+ ]o, at which conversion of the effects of compounds (10^-4 M) occurred, was as follows.

[1] = tested on: left ventricular dp/dt max; experiment: Cardiotonic effects in the anesthetized dog; format: in vivo; conditions: Canis lupus familiaris, iv, read-out: Increase in dp/dt max; for change in vivo at 0.3 mg/kg: 300 μg/kg
Protocol: (§1) Adult mongrel dogs were anesthetized with sodium pentobarbital (30 mg/kg i.v.). Effects of test compounds on arterial blood pressure, coronary arterial blood flow, vertebral blood flow, renal blood flow, left ventricular dp/dt max (dp/dt max) and urine volume were observed. The compounds were administered intravenously (i.v.) or intraduodenally (i.d.).

[2] = tested on: coronary arterial blood flow; experiment: Coronary vasodilating effects in the anesthetized dog; format: in vivo; conditions: Canis lupus familiaris, iv, read-out: Increase in coronary blood flow; for change in vivo at 0.3 mg/kg: 300 μg/kg
Protocol: as §1

[3] = tested on: left ventricular dp/dt max; experiment: Left ventricular dp/dt max after injection into left coronary artery of anesthetized dogs; format: in vivo; conditions: intracoronary injection, anesthetized dog; dose to increase dp/dt max by 30% of effect of isoproterenol (0.1 μg)
Protocol: (§2) Dogs of either sex were anesthetized with sodium pentobarbital (30 mg/kg i.v.). Heparin (500 U/kg i.v.) was administered before making preparation. Under artificial respiration (18 strokes/min, 20 ml/kg tidal volume), left ventricular dp/dt max, and left coronary blood flow were measured (1). Test compounds were injected into the left coronary artery in a volume of 10 or 30 μl. The effects of compounds on coronary blood flow were observed and presented generally as ED50, a dose required to increase coronary blood flow by a half of the effects of nifedipine (3 μg). Similarly, the effects on dp/dt max were observed and shown as ED30, a dose required to increase dp/dt max by 30% of the efffects of isoproterenol (0.1 μg).

arterial blood pressure = experiment: Hypotensive effects in the anesthetized dog; format: in vivo; conditions: Canis lupus familiaris, iv, read-out: Hypotensive effect; for inhibition in vivo at 0.3 mg/kg: 300 μg/kg
Protocol: as §1

left coronary blood flow = experiment: Coronary blood flow after injection into left coronary artery of anesthetized dogs; format: in vivo; conditions: intracoronary injection, anesthetized dog; dose to increase CBF by half of the effect of nifedipine (3 μg)
Protocol: as §2

[4] = tested on: blood pressure, coronary, renal and heart function; experiment: Cardiovascular and renal activity in words; format: in vivo
[5] = Oral bioavailability in words; format: in vivo

SMILES	[K+]o at which conversion of Ca2+-agonistic to Ca2+-antagonistic action occurred (Rabbit aorta) [mM]	[K+]o at which conversion of Ca2+-agonistic to Ca2+-antagonistic action occurred (Papillary muscle) [mM]	change in vivo at 0.3 mg/kg [1] [%]	change in vivo at 0.3 mg/kg [2] [%]	Increase in dp/dt max ED30 [3] [µg]	Increase in CBF ED50 (left coronary blood flow) [µg]	further results
CCOC(=O)C1=C(C)Nc2ccnn2C1c1ccccc1C(F)(F)F (centres unmarked) [(1), 6-Ethoxycarbonyl-5-methyl-7-(2-trifluoromethylphenyl)-4,7-dihydropyrazolo[1,5-a]pyrimidine]	23	16					Survival (ddY strain mice; intraperitoneal, 250 mg/kg): All mice survived; Survival (ddY strain mice; oral, 1,000 mg/kg): All mice survived
CCCCOC(=O)C1=C(C)Nc2ccnn2C1c1ccccc1C(F)(F)F (centres unmarked) [(3), 6-Butoxycarbonyl-5-methyl-7-(2-trifluoromethylphenyl)-4,7-dihydropyrazolo[1,5-a]pyrimidine]	24						change in vivo at 0.1 mg/kg ([1]; 100 μg/kg): 20%; change in vivo at 0.1 mg/kg ([2]; 100 μg/kg): 36%
CC1=C(C(=O)OC(C)C)C(c2ccccc2C(F)(F)F)n2nccc2N1 (centres unmarked) [(10), 6-Isopropoxycarbonyl-5-methyl-7-(2-trifluoromethylphenyl)-4,7-dihydropyrazolo[1,5-a]pyrimidine]	21	15	39	132	71	5.7	Survival (ddY strain mice; intraperitoneal, 250 mg/kg): All mice survived; Survival (ddY strain mice; oral, 1,000 mg/kg): All mice survived; inhibition in vivo at 0.3 mg/kg (arterial blood pressure): 31%
CCCOC(=O)C1=C(C)Nc2ccnn2C1c1ccccc1C(F)(F)F (centres unmarked) [(11), 5-Methyl-6-propoxycarbonyl-7-(2-trifluoromethylphenyl)-4,7-dihydropyrazolo[1,5-a]pyrimidine]	22						change in vivo at 0.01 mg/kg ([2]; 10 μg/kg): 36%
CC1=C(C(=O)OC(C)(C)C)C(c2ccccc2C(F)(F)F)n2nccc2N1 (centres unmarked) [(13), 6-tert-Butoxycarbonyl-5-methyl-7-(2-trifluoromethylphenyl)-4,7-dihydropyrazolo[1,5-a]pyrimidine]	24	14	39	34	70	22	
CC1=C(C(=O)OC2CCCC2)C(c2ccccc2C(F)(F)F)n2nccc2N1 (centres unmarked) [(15), 6-Cyclopentyloxycarbonyl-5-methyl-7-(2-trifluoromethylphenyl)-4,7-dihydropyrazolo[1,5-a]pyrimidine]	20	18	83	125	198	1.8	inhibition in vivo at 0.3 mg/kg (arterial blood pressure): 20%
CC1=C(C(=O)OC(C)C)C(c2ccccc2F)n2nccc2N1 (centres unmarked) [(23), 7-(2-Fluorophenyl)-6-isopropoxycarbonyl-5-methyl-4,7-dihydropyrazolo[1,5-a]pyrimidine]	19	12	44	157	71	15	Survival (ddY strain mice; intraperitoneal, 250 mg/kg): All mice survived; Survival (ddY strain mice; oral, 1,000 mg/kg): All mice survived; inhibition in vivo at 0.3 mg/kg (arterial blood pressure): 32%
CC1=C(C(=O)OC2CCCC2)C(c2ccccc2F)n2nccc2N1 (centres unmarked) [(25), 6-Cyclopentyloxycarbonyl-7-(2-fluorophenyl)-5-methyl-4,7-dihydropyrazolo[1,5-a]pyrimidine]		15			164	28	
CC1=C(C(=O)OC(C)C)C(c2ccccc2Br)n2nccc2N1 (centres unmarked) [(27), 7-(2-Bromophenyl)-6-isopropoxycarbonyl-5-methyl-4,7-dihydropyrazolo[1,5-a]pyrimidine]	22	12			103	7	change in vivo at 0.03 mg/kg ([2]; 30 μg/kg): 37%; inhibition in vivo at 0.03 mg/kg (arterial blood pressure; 30 μg/kg): 20%
CC1=C(C(=O)OC(C)C)C(c2ccccc2C)n2nccc2N1 (centres unmarked) [(30), 6-Isopropoxycarbonyl-5-methyl-7-(2-methylphenyl)-4,7-dihydropyrazolo[1,5-a]pyrimidine]	28	15	46	47			
CC(C)OC(=O)C1=C(COCCN)Nc2c(C#N)cnn2C1c1cccc(F)c1F (centres unmarked) [isopropyl 5-(2-aminoethoxymethyl)-3-cyano-7-(2,3-difluorophenyl)-4,7-dihydropyrazolo[1,5-a]pyrimidine-6-carboxylate]							Coronary vasodilating activity [4]: high-selective coronary vasodilating activity; Diuretic activity [4]: potent diuretic activity; Heart-depressive activity [4]: weak heart-depressive activity; Hypotensive activity [4]: mild and long-lasting hypotensive activity; Renal blood flow increasing activity [4]: renal blood flow increasing activity; Bioavailability by oral administration [5]: higher bioavailability by the oral administration

Source: patent US4918074A, “Polyazaheterocycle compounds” (Yoshitomi Pharmaceutical Industries, Ltd., priority 1984, dated 1990)
